In DBAASP one finds MIC data, which are given here for 9 molecules.

Holding throughout (test): ≥ marks a high value that may be exact or a test limit, other limits are often not marked, values filed in µg/mL are converted to µM
The test system of experiment [1] is Escherichia coli BL21.
Experiment [2] concerns Streptococcus pyogenes M1T1 5448.
Experiment [3] concerns Pseudomonas aeruginosa PAO1.
Experiment [4] concerns Staphylococcus aureus NCTC 12981.
Experiment [5] concerns Escherichia coli NCTC 10418.
Experiment [6] concerns Escherichia coli O157:H7.
Experiment [7] has as its system Listeria monocytogenes 10403s.
Experiment [8] concerns Acinetobacter baumannii.
In experiment [9] the test system is Shigella sonnei ATCC 11060.
The subject of experiment [10] is Bacillus cereus ATCC 11778.
The test system of experiment [11] is Staphylococcus epidermidis ATCC 12228.
For experiment [12], the system named is Enterococcus faecalis ATCC 29212.
Experiment [13] relates to Staphylococcus aureus ATCC 25923.
Experiment [14] has as its system Vibrio cholerae O1 Inaba.
Experiment [15] relates to Escherichia coli ATCC 25922.
In experiment [16] the test system is Pseudomonas aeruginosa ATCC 27853.
Experiment [17] deals with Salmonella enterica subsp. enterica serovar Typhimurium ATCC 13311.
Experiment [18] has as its system Salmonella enterica subsp. enterica serovar Enteritidis.
For experiment [19], the system named is Escherichia coli.
Experiment [20] relates to Listeria innocua.
Experiment [21] concerns Micrococcus luteus A270.
The test system of experiment [22] is Micrococcus luteus ATCC 9341.
The test system of experiment [23] is Pseudomonas aeruginosa H1001.

Each structure is given as a SMILES string. In brackets after ≈: the same amount, converted by molar mass. Some results are limits rather than exact numbers.

A word on the MIC: it is the least concentration at which growth counts as inhibited. A higher MIC goes with a need for much substance. Regarding `CC[C@H](C)[C@H](NC(=O)[C@H](CCCCN)NC(=O)[C@H](CCCCN)NC(=O)[C@H](CCCCN)NC(=O)[C@H](CC(C)C)NC(=O)[C@H](CCCN=C(N)N)NC(=O)[C@H](CCC(N)=O)NC(=O)[C@H](Cc1ccccc1)NC(=O)[C@@H](NC(=O)[C@@H](NC(=O)[C@H](CCC(=O)O)NC(=O)[C@H](CCCCN)NC(=O)CNC(=O)[C@H](C)N)[C@@H](C)O)[C@@H](C)CC)C(=O)N[C@@H](CCC(N)=O)C(=O)N[C@@H](CCC(=O)O)C(=O)N[C@@H](CCCCN)C(=O)N[C@@H](Cc1c[nH]c2ccccc12)C(=O)N[C@@H](CCCCN)C(=O)N[C@@H](CCCN=C(N)N)C(=O)N[C@@H](C)C(=O)N[C@H](C(=O)N[C@H](C(=O)N[C@@H](C)C(=O)N[C@@H](Cc1c[nH]c2ccccc12)C(=O)O)[C@@H](C)CC)[C@@H](C)O` [AGKETIFQRLKKKIQEKWKRATIAW], the MIC in experiment [1] worked out at 1 µM (≈ 3.06 µg/mL); in [2], 4 µM (≈ 12.2 µg/mL); in experiment [3], 16 µM (≈ 48.9 µg/mL).
For `CC[C@H](C)[C@H](NC(=O)[C@H](CCC(=O)O)NC(=O)[C@H](CCCN=C(N)N)NC(=O)[C@H](CCCN=C(N)N)NC(=O)[C@H](CC(C)C)NC(=O)[C@H](Cc1ccc(O)cc1)NC(=O)[C@H](CCCCN)NC(=O)[C@H](C)NC(=O)[C@@H](NC(=O)[C@@H](NC(=O)[C@H](CCC(N)=O)NC(=O)[C@H](CCCN=C(N)N)NC(=O)[C@H](Cc1c[nH]c2ccccc12)NC(=O)[C@H](C)N)[C@@H](C)O)[C@@H](C)CC)C(=O)N[C@@H](CCCN=C(N)N)C(=O)N[C@@H](CCCCN)C(=O)N[C@@H](CCCN=C(N)N)C(=O)NCC(=O)N[C@@H](CCCN=C(N)N)C(=O)N[C@@H](CCCCN)C(=O)N[C@@H](C)C(=O)N[C@H](C(=O)N[C@H](C(=O)N[C@@H](C)C(=O)N[C@@H](Cc1c[nH]c2ccccc12)C(=O)O)[C@@H](C)CC)C(C)C` [AWRQTIAKYLRREIRKRGRKAVIAW], in that order: 1 µM (≈ 3.13 µg/mL), 4 µM (≈ 12.5 µg/mL) and 4 µM (≈ 12.5 µg/mL).
As to `NC(=O)[C@H](Cc1ccccc1)NC(=O)[C@H](CCCN=C(N)N)NC(=O)[C@H](Cc1ccccc1)NC(=O)[C@H](CCCN=C(N)N)NC(=O)[C@@H](N)Cc1ccccc1` [FRFRF], the MIC in experiment [4] and in experiment [5] was ≥ 166 µM throughout.
For `CC[C@H](C)[C@H](NC(=O)[C@H](CC(=O)O)NC(=O)[C@H](Cc1ccccc1)NC(=O)[C@H](CC(C)C)NC(=O)CN)C(=O)N[C@H](C(=O)N[C@@H](CCCCN)C(=O)N[C@@H](CCCCN)C(=O)N[C@H](C(=O)N[C@@H](C)C(=O)NCC(N)=O)C(C)C)C(C)C` [GLFDIVKKVAG], the MIC in experiment [6] was ≥ 218 µM; in experiment [7] it was ≥ 218 µM; in experiment [8], ≥ 218 µM; in experiment [9], ≥ 218 µM; in experiment [10], ≥ 218 µM; in experiment [11], > 218 µM. Besides, the MIC in experiment [12] is > 218 µM; in experiment [13] it was > 218 µM; in [14] it was ≥ 218 µM; in [15] it was > 218 µM; in experiment [16] it was > 218 µM; in experiment [17] it was ≥ 218 µM.
For the molecule `CC[C@H](C)[C@H](NC(=O)[C@H](CCCN=C(N)N)NC(=O)[C@H](CCCCN)NC(=O)[C@H](C)NC(=O)[C@@H](NC(=O)[C@@H](N)CCCCN)[C@@H](C)CC)C(=O)N[C@@H](Cc1c[nH]c2ccccc12)C(=O)N[C@@H](CCCCN)C(=O)N[C@H](C(=O)N[C@@H](CC(C)C)C(=O)N[C@@H](CCCN=C(N)N)C(=O)N[C@@H](CCCN=C(N)N)C(=O)N[C@@H](CCCN=C(N)N)C(=O)N[C@@H](CC(C)C)C(=O)N[C@@H](Cc1ccccc1)C(=O)N[C@@H](CCCN=C(N)N)C(=O)N[C@@H](CCCN=C(N)N)C(=O)N[C@H](C(=O)N[C@@H](CCCCN)C(=O)N[C@@H](CCCCN)C(=O)N[C@H](C(=O)N[C@@H](C)C(=O)NCC(N)=O)C(C)C)C(C)C)[C@@H](C)CC` [KIAKRIWKILRRRLFRRVKKVAG], the MIC in experiment [6] is ≥ 86.4 µM; in experiment [7], 1.35 µM (≈ 3.91 µg/mL); in [8], 2.7 µM (≈ 7.81 µg/mL); in experiment [9], 1.35 µM (≈ 3.91 µg/mL); in experiment [10], 2.7 µM (≈ 7.81 µg/mL); in experiment [11], 1.35 µM (≈ 3.91 µg/mL). The MIC came out at 10.8 µM (≈ 31.2 µg/mL) in [12]; 5.4 µM (≈ 15.6 µg/mL) in experiment [13]; 2.7 µM (≈ 7.81 µg/mL) in [14]; 5.4 µM (≈ 15.6 µg/mL) in experiment [15]; 2.7 µM (≈ 7.81 µg/mL) in [16]; 2.7 µM (≈ 7.81 µg/mL) in experiment [17].
For the molecule `C[C@@H](O)[C@H](NC(=O)[C@H](CCCCN)NC(=O)[C@@H](NC(=O)[C@@H](NC(=O)[C@@H]1CCCN1)[C@@H](C)O)[C@@H](C)O)C(=O)N[C@@H](Cc1ccc(O)cc1)C(=O)N[C@@H](Cc1ccccc1)C(=O)N1CCC[C@H]1C(=O)N[C@@H](Cc1cnc[nH]1)C(=O)N[C@@H](Cc1ccccc1)C(=O)O` [PTTKTYFPHF], the MIC in experiment [18] turned out to be 9 µM (≈ 11.1 µg/mL); in [19], 9 µM (≈ 11.1 µg/mL); in experiment [20], 1 µM (≈ 1.24 µg/mL); in experiment [21], 1 µM (≈ 1.24 µg/mL).
On to `NC(=O)[C@H](CCCN=C(N)N)NC(=O)[C@H](CCCN=C(N)N)NC(=O)[C@H](Cc1c[nH]c2ccccc12)NC(=O)[C@@H]1CCCN1C(=O)[C@H](Cc1c[nH]c2ccccc12)NC(=O)[C@H](Cc1c[nH]c2ccccc12)NC(=O)[C@@H]1CCCN1` [PWWPWRR], for which the MIC in experiment [22] was 3.1 µM (≈ 3.36 µg/mL); in [23] it was ≥ 231 µM.
Regarding `CC(C)C[C@H](NC(=O)[C@H](CCCN=C(N)N)NC(=O)[C@@H]1CCCN1C(=O)[C@H](CCCN=C(N)N)NC(=O)[C@H](CCCN=C(N)N)NC(=O)[C@@H]1CCCN1C(=O)[C@@H](N)CCCN=C(N)N)C(=O)N1CCC[C@H]1C(=O)N[C@@H](Cc1c[nH]c2ccccc12)C(N)=O` [RPRRPRLPW], the MIC in experiment [4] and in experiment [5] was ≥ 104 µM throughout.
For the molecule `CC[C@H](C)[C@H](NC(=O)[C@H](CCCN=C(N)N)NC(=O)[C@H](Cc1ccc(O)cc1)NC(=O)[C@H](Cc1c[nH]c2ccccc12)NC(=O)[C@H](CCCN=C(N)N)NC(=O)[C@@H](NC(=O)[C@@H](N)CCCN=C(N)N)C(C)C)C(=O)N[C@@H](Cc1ccccc1)C(=O)N[C@@H](Cc1ccc(O)cc1)C(N)=O` [RVRWYRIFY], in experiment [23], the MIC was 1.47 µM (≈ 2 µg/mL).
